Publication PMC9161444, “In-Membrane Nanostructuring of Cationic Amphiphiles Affects Their Antimicrobial Efficacy and Cytotoxicity: A Comparison Study between a De Novo Antimicrobial Lipopeptide and Traditional Biocides” (Langmuir, 2022)
“And” between values parts separate entries of the source, which are not always exact repeats. Equal entries are not always repeated. Where two headings read alike, the source gives them in different places.

What was measured:
[1] = test system: Human dermal fibroblasts cells (adult, HDFa cells); assay type: cell-based; settings: MTT assay, 24 h exposure, 37 °C, absorbance 570 nm, sigmoidal fit; ± SD, at least three replicates; read-out: EC50, HDFa
Protocol: (§1) Human dermal fibroblasts cells (adult, HDFa cells) and NIH 3T3 fibroblasts cells (3T3 cells, ATCC-1658) were cultured at 37 °C in Dulbecco’s modified Eagle medium (ATCC30-2002, added with 10% heat-inactivated fetal bovine serum) with a continuous supply of CO2 at a 5% level. MTT assays were carried out to examine in vitro cytotoxicity of the amphiphiles.[22] Cells were first inoculated in flat-bottom 96-well plates, rendering 8 × 10^3 cells in 100 μL of medium for each well, and were incubated for 24 h. The cells were mixed with 100 μL of a solution of an amphiphile with 2 times the selected concentrations. Cells were then exposed to the solutions of each amphiphile for 24 h, after which 10 μL of 5 mg/mL MTT solution was added into each well, and the reaction was allowed for 2 h. 200 μL of dimethyl sulfoxide was then added to each well to dissolve the transformed MTT formazan. Light absorbance of the samples was measured using a Thermo Scientific Varioskan LUX at 570 nm. Cell samples 100% viable and 100% dead were employed as the positive control and negative control, respectively. Dose response curves were obtained by applying sigmoidal function fittings to obtain 50% effective concentrations (EC50).

[2] = test system: NIH 3T3 fibroblasts cells (3T3 cells, ATCC-1658); assay type: cell-based; settings: MTT assay, 24 h exposure, 37 °C, absorbance 570 nm, sigmoidal fit; ± SD, at least three replicates; read-out: EC50, NIH/3T3
Protocol: as §1

[3] = Fluorescein (CF) leakage from SUVs; settings: for threshold concentration of fast leakage increase, PC/PG SUVs: end of the low leakage induction range; for concentration for 20% leakage, PC/Chol. vesicles / concentration for 20% leakage, PC/PG vesicles / concentration for 100% leakage, PC/Chol. vesicles / concentration for 100% leakage, PC/PG vesicles / concentration for minimal leakage, PC/Chol. vesicles / concentration for minimal leakage, PC/PG vesicles / EC50: CF-SUVs 0.25 mg/mL in TBS pH 7.2, fluorescence ex 480/em 520 nm, read from Figure 5
Protocol: Lipid SUVs with single or multiple components were used to model different biomembranes. In this work, two lipid mixtures with different surface charges were used to mimic bacterial inner membranes with the molar ratio of POPC/POPG of 7:3 and mammalian cytoplasmic cell membranes with a molar ratio of POPC/cholesterol of 1:1. Lipids (or cholesterol) were dissolved and mixed in chloroform, and then, the solvent was removed via evaporation and lyophilization. Dry lipids were dissolved in Tris buffered saline (TBS, containing 10 mM Tris-HCl and 154 mM NaCl, with a final pH of 7.2) and were fully dispersed via sonication. After five freeze/thaw loops of the lipid solution, SUVs were prepared by extruding 31 times using an Avanti Polar Lipids mini extruder. SUV solutions were diluted to 0.5 mg/ml for further use.
Concentration effects of the binding of amphiphiles to lipid SUVs were examined by means of fluorescein leakage. 5(6)-Carboxyfluorescein (CF)-entrapped SUVs (CF-SUVs) were prepared as described previously,[26] except that dried lipids were dissolved into 40 mM TBS solution of CF before the freeze/thaw loop. After extrusion, CF-SUVs were separated from unentrapped fluorescein molecules using a Sephadex G50 chromatography column. Amphiphile solutions of various concentrations were then blended in a 1:1 ratio with CF-SUVs, giving a mixture of amphiphiles of the desired concentration and CF-SUVs of concentration 0.25 mg/mL. A Thermo Scientific Varioskan LUX was employed to determine the amount of released CF in each sample by measuring their emission intensity I520, with an excitation wavelength of 480 nm and an emission wavelength of 520 nm. CF-SUVs alone and with added 0.2% Triton-X were measured as positive and negative controls (I+ and I–), respectively. The percentage of leakage L for each sample was calculated using Ln = (In,520 – I+)/(I– – I+) × 100%.

[4] = previous findings by Lu et al.; cited from earlier work
Excerpt: From the best fitted surface tension parameters (listed in Table S2), the area per molecule (APM) could be calculated from eq 4 for each amphiphile at its respective CAC. […] This is in line with the previous findings by Lu et al., which stated that APMs of C10TAB, C12TAB, C14TAB, C16TAB, and C18TAB adsorbed on the surface of water were 55 ± 3, 50 ± 2, 48 ± 3, 43 ± 3, and 43 ± 3 Å^2, respectively.[29]−[33] Each lipopeptide molecule occupied around 79 ± 10 Å^2 at ...

S. aureus (ATCC 6538) = assay type: cell-based, Staphylococcus aureus; settings: for MIC/CAC, converted data, S. aureus: MIC divided by the amphiphile's CAC; for MIC, S. aureus: microdilution, serial half-dilution in PBS, Mueller Hinton broth, 37 °C, 24 h, 10^6 CFU/mL, by eye and OD600, ± SD, at least three replicates
Protocol: E. coli (ATCC 25922), S. aureus (ATCC 6538), and C. albicans SC5314 (ATCC MYA-2876) were purchased from the American Type Culture Collection (ATCC). The two bacterial strains, E. coli and S. aureus, were cultured in Mueller Hinton broth at 37 °C; while the yeast strain, C. albicans, was grown in RPMI 1640 medium at 30 °C. The microdilution method was employed to determine MICs of the amphiphiles against the microorganism strains listed above.[21] Solutions of lipopeptides and biocides were half-diluted serially in 96-well plates using PBS buffer containing 137 mM NaCl, 2.7 mM KCl, 8.1 mM Na2HPO4, and 1.9 mM KH2PO4 for E. coli and S. aureus and using RPMI 1640 for C. albicans. Overnight incubations of the strains, in each respective growth medium, were then inoculated into each well, giving final concentrations of 10^6 CFU/mL for E. coli and S. aureus and 10^5 CFU/mL for C. albicans. Culture media without microorganisms and amphiphiles were employed as positive controls, while fresh microorganism cultures without amphiphiles were used as negative controls. Each plate has both positive controls and negative controls. The plates were then incubated at an appropriate temperature (stated above) for 24 h for the bacterial strains and 48 h for the yeast strain. MICs of each sample were first determined by eye. A more quantitative analysis was carried out by measuring optical densities at 600 nm (OD600) of each well using a Sunrise absorbance microplate reader (Tecan Group Ltd.). Inhibitory ratios (IRs) of each sample at a given concentration against a specific strain, denoted as IRi, were calculated by IRi = (OD600,negative control – OD600,i)/(OD600,negative control – OD600,positive control) × 100%. All experiments were repeated at least three times with each group containing three replicates. To better analyze concentration–IR relationships, sigmoidal function fittings were employed to generate the best fitted dose response curve for each situation.

[5] = read-out: concentration for 50% leakage, PC/Chol. vesicles
[6] = read-out: concentration for 50% leakage, PC/PG vesicles

| SMILES | EC50 [1] [µM] | EC50 [2] [µM] | concentration above which fast leakage was induced, PC/chol SUVs ([3]; CF leakage, end of the low leakage induction period) [µM] | threshold concentration of fast leakage increase, PC/PG SUVs ([3]; CF leakage) [µM] | concentration for 20% leakage, PC/Chol. vesicles [3] [µM] | concentration for 20% leakage, PC/PG vesicles [3] [µM] | concentration for 100% leakage, PC/Chol. vesicles [3] [µM] | concentration for 100% leakage, PC/PG vesicles [3] | concentration for minimal leakage, PC/Chol. vesicles [3] | concentration for minimal leakage, PC/PG vesicles [3] | EC50 [3, 5] [µM] | EC50 [3, 6] [µM] | leakage, PC/PG SUVs ([3]; at 256 μM) [%] | leakage, PC/PG SUVs ([3]; from 16 to 75 μM) | APM adsorbed on the surface of water [4] [Å^2] | MIC/CAC, converted data, S. aureus (S. aureus (ATCC 6538)) | MIC, S. aureus (S. aureus (ATCC 6538)) [µM] | maximum leakage, PC/chol SUVs ([3]; at 100 μM and above) [%] |
| --- | --- | --- | --- | --- | --- | --- | --- | --- | --- | --- | --- | --- | --- | --- | --- | --- | --- | --- |
| CCCCCCCCCCCC[N+](C)(C)C.[Br-] [C12TAB, dodecyltrimethylammonium bromide] | 17 ± 5 | 12 ± 4 | ~70 | 75 | 500 | 125 | >2000 | above 1000 μM and 1000 μM | 10 µM | around 16 μM and 75 μM | 2000 | 256 | 60 | less than 10% | 50 ± 2 | 0.03 ± 0.01 | 25 ± 7 |  |
| CCCCCCCCCCCCCC[N+](C)(C)C.[Br-] [C14TAB, tetradecyltrimethylammonium bromide] | 7 ± 3 | 3 ± 1 |  | 16 | 10 | 30 | >500 | 500 µM | around 4 μM | 4 µM | 100 | 50 |  |  | 48 ± 3 | 0.06 ± 0.04 | 6 ± 4 | 50 |
